The source of these data is PMC5380162, “Characterization of a novel N-acetylneuraminic acid lyase favoring N-acetylneuraminic acid synthesis” (Scientific Reports, 2015).

Format in all cases: biochemical
In one assay the target is T1, EcDHDPS (Escherichia coli, UniProt P0A6L2).
T1 construct: gene dapA; dapA amplified from E. coli genomic DNA into pET-28a(+), expressed in E. coli Rosetta, Ni-NTA
T1 sequence (P0A6L2 1-292): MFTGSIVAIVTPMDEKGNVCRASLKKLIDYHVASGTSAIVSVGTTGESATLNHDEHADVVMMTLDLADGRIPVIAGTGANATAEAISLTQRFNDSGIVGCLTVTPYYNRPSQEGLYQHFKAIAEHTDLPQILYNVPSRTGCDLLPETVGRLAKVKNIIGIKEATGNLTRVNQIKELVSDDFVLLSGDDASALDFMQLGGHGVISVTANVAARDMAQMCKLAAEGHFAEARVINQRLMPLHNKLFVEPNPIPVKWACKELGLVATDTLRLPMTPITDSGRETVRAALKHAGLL
The assay is described as follows: coupled enzymatic assay (Yugari and Gilvarg). The following applies: co-substrate pyruvate.

For assay [1], the target named is T2, CgNal (Corynebacterium glutamicum, UniProt Q8NMD2).
T2 construct: gene Cgl2646; full length 312 aa (939 bp ORF), pET-28a(+), N-terminal His6-tag, E. coli Rosetta (DE3) pLysS, ~33 kDa, Ni-NTA; NAL family homotetramer
T2 sequence (Q8NMD2 entry or part of it): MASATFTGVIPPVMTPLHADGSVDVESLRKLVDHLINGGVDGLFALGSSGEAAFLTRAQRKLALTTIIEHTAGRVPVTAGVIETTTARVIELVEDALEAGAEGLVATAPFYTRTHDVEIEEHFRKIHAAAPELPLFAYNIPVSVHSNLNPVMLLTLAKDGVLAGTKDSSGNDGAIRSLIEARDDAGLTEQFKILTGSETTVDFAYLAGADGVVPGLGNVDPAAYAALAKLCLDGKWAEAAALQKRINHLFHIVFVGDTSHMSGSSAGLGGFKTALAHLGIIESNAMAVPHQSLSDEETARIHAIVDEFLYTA
The assay is described as follows: HPLC of substrates and products, Neu5Ac synthesis. The settings on record: 0.1 M Tris-HCl pH 7.5, assay at 37 °C, synthesis direction. From the text:
HPLC of substrates and products, Neu5Ac synthesis on CgNal

The target of assay [2] is T2, CgNal. The assay is described as follows: HPLC of substrates and products, Neu5Ac cleavage. The settings on record: read-out: Neu5Ac Cleavage / Neu5Ac / Km; 0.1 M Tris-HCl pH 7.5, assay at 37 °C; cleavage direction. From the text: HPLC of substrates and products, Neu5Ac cleavage on CgNal

As for `N[C@@H](CC=O)C(=O)O` [ASA], on EcDHDPS, the “coupled enzymatic assay (Yugari and Gilvarg)” value is “Using ASA as substrate, CgNal showed only half the activity of EcDHDPS”.
With `CC(=O)N[C@@H]1C(O)O[C@H](CO)[C@@H](O)[C@@H]1O` (stereo partly shown) [ManNAc], the Km on CgNal [1] (read-out: Neu5Ac Synthesis / ManNAc / Km, pyruvate fixed at 100 mM) came to 53.3 mM.
In the case of `CC(=O)N[C@H]1[C@H]([C@H](O)[C@H](O)CO)OC(O)(C(=O)O)C[C@@H]1O` (stereo partly shown) [Neu5Ac], the Km on CgNal [2] was 33.5 mM.
On to `CC(=O)C(=O)O` [pyruvate], for which the Km on CgNal [1] (read-out: Neu5Ac Synthesis / Pyruvate / Km, ManNAc fixed at 50 mM) stood at 14.7 mM.
